Data: the supplement of paper PMC10307832

What was measured:
Experiment in all cases: relative viability (nuclei count vs DMSO), 5 days (fraction); higher = more cells survive
Pemetrexed + Luminespib = compound: Nc1nc2[nH]cc(CCc3ccc(C(=O)N[C@@H](CCC(=O)O)C(=O)O)cc3)c2c(=O)[nH]1 [Pemetrexed] + CCNC(=O)c1noc(-c2cc(C(C)C)c(O)cc2O)c1-c1ccc(CN2CCOCC2)cc1 [Luminespib] (partner 0.01 µM)
Summary of the method: (§1)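 After 5 days of treatment, lung cancer cells in 1536-well plates were fixed and stained in a single step (final 0.05% Triton X-100, 1% formaldehyde, 1 ug/ml Hoechst) and their nuclei counted on 4× images. Treatment had been applied by pin tool the day after seeding as one drug alone or as a fixed anchor-drug dose with five library-drug doses (not always all listed) in √10 steps. Relative viability is the nuclei count of treated wells divided by that of vehicle wells, and values are medians of duplicate plates.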

Idelalisib + Crizotinib = compound: CC[C@H](Nc1ncnc2[nH]cnc12)c1nc2cccc(F)c2c(=O)n1-c1ccccc1 [Idelalisib] + C[C@@H](Oc1cc(-c2cnn(C3CCNCC3)c2)cnc1N)c1c(Cl)ccc(F)c1Cl [Crizotinib] (partner 1 µM)
Summary of the method: as §1

Idelalisib + Trametinib = compound: CC[C@H](Nc1ncnc2[nH]cnc12)c1nc2cccc(F)c2c(=O)n1-c1ccccc1 [Idelalisib] + CC(=O)Nc1cccc(-n2c(=O)n(C3CC3)c(=O)c3c(Nc4ccc(I)cc4F)n(C)c(=O)c(C)c32)c1 [Trametinib] (partner 0.02 µM)
Summary of the method: as §1

Idelalisib + Vorinostat = compound: CC[C@H](Nc1ncnc2[nH]cnc12)c1nc2cccc(F)c2c(=O)n1-c1ccccc1 [Idelalisib] + O=C(CCCCCCC(=O)Nc1ccccc1)NO [Vorinostat] (partner 1 µM)
Summary of the method: as §1

Cell Line | relative viability (Pemetrexed + Luminespib; first compound 0.002 µM) | relative viability (Pemetrexed + Luminespib; first compound 0.006325 µM) | relative viability (Pemetrexed + Luminespib; first compound 0.02 µM) | relative viability (Pemetrexed + Luminespib; first compound 0.06325 µM) | relative viability (Pemetrexed + Luminespib; first compound 0.2 µM) | relative viability (Idelalisib + Crizotinib; first compound 0.04 µM) | relative viability (Idelalisib + Crizotinib; first compound 0.1265 µM) | relative viability (Idelalisib + Crizotinib; first compound 0.4 µM) | relative viability (Idelalisib + Crizotinib; first compound 1.265 µM) | relative viability (Idelalisib + Crizotinib; first compound 4 µM) | relative viability (Idelalisib + Trametinib; first compound 0.04 µM) | relative viability (Idelalisib + Trametinib; first compound 0.1265 µM) | relative viability (Idelalisib + Trametinib; first compound 0.4 µM) | relative viability (Idelalisib + Trametinib; first compound 1.265 µM) | relative viability (Idelalisib + Trametinib; first compound 4 µM) | relative viability (Idelalisib + Vorinostat; first compound 0.04 µM) | relative viability (Idelalisib + Vorinostat; first compound 0.1265 µM) | relative viability (Idelalisib + Vorinostat; first compound 0.4 µM) | relative viability (Idelalisib + Vorinostat; first compound 1.265 µM) | relative viability (Idelalisib + Vorinostat; first compound 4 µM)
LXF-289 | 0.687 | 0.648 | 0.731 | 0.639 | 0.651 | 0.839 | 0.818 | 0.778 | 0.909 | 0.825 | 0.694 | 0.706 | 0.655 | 0.721 | 0.734 | 0.878 | 0.759 | 0.781 | 0.783 | 0.764
NCI-H23 | 0.216 | 0.202 | 0.22 | 0.201 | 0.211 | 0.723 | 0.56 | 0.277 | 0.533 | 0.387 | 0.462 | 0.38 | 0.281 | 0.399 | 0.312 | 0.674 | 0.657 | 0.395 | 0.317 | 0.62
NCI-H322M | 0.987 | 0.767 | 0.853 | 0.84 | 0.752 | 1 | 0.842 | 0.792 | 0.687 | 0.809 | 0.58 | 0.57 | 0.479 | 0.505 | 0.537 | 1.03 | 0.993 | 0.799 | 0.899 | 0.911
NCI-H358 | 0.268 | 0.368 | 0.227 | 0.367 | 0.146 | 0.646 | 0.579 | 0.496 | 0.549 | 0.516 | 0.191 | 0.146 | 0.149 | 0.129 | 0.148 | 0.643 | 0.63 | 0.588 | 0.567 | 0.593
NCI-H441 | 0.35 | 0.328 | 0.33 | 0.393 | 0.328 | 1.15 | 0.702 |  | 0.68 | 0.654 | 0.437 | 0.484 |  | 0.615 | 0.396 | 0.851 | 0.908 |  | 0.737 | 0.758
NCI-H460 | 0.0265 | 0.0449 | 0.0346 | 0.0259 | 0.0265 | 1.39 | 0.784 | 0.842 | 0.928 | 0.83 | 0.218 | 0.194 | 0.139 | 0.131 | 0.113 | 0.526 | 0.783 | 0.692 | 0.525 | 0.686
NCI-H520 | 0.215 | 0.234 | 0.223 | 0.261 | 0.2 | 0.782 | 0.727 | 0.717 | 0.737 | 0.623 | 0.793 | 0.566 | 0.479 | 0.628 | 0.613 | 0.768 | 0.708 | 0.669 | 0.722 | 0.488
NCI-H596 | 0.97 | 1.01 | 1.14 | 0.945 | 0.679 | 1.02 | 0.902 | 0.886 | 0.923 | 0.948 | 0.756 | 0.82 | 0.782 | 0.878 | 0.592 | 0.622 | 0.595 | 0.511 | 0.567 | 0.415
NCI-H647 | 0.21 | 0.189 | 0.257 | 0.17 | 0.131 | 1.43 | 1.03 | 0.815 | 0.859 | 0.7 | 0.431 | 0.485 | 0.423 | 0.354 | 0.239 | 0.686 | 0.435 | 0.546 | 0.247 | 0.141
NCI-H650 | 0.751 | 0.733 | 0.732 | 0.705 | 0.842 | 0.947 | 0.673 | 0.652 | 0.664 | 0.669 | 1.08 | 0.928 | 0.888 | 1.09 | 0.848 | 0.495 | 0.449 | 0.369 | 0.419 | 0.421
NCI-H661 | 0.958 | 0.882 | 0.934 | 0.884 | 0.85 | 1.04 |  | 1.08 | 1.14 | 0.943 | 0.585 | 0.579 | 0.535 | 0.618 | 0.502 | 0.81 | 0.779 | 0.828 | 0.876 | 0.814
NCI-H727 |  | 0.255 | 0.346 | 0.689 | 0.506 | 0.81 | 0.798 | 0.76 | 1 | 0.797 | 0.423 | 0.457 | 0.34 | 0.394 | 0.387 | 1.24 | 1.17 | 1.12 | 1.25 | 1.05
NCI-H838 | 0.234 | 0.246 | 0.309 | 0.197 | 0.156 | 0.791 | 0.906 | 0.724 | 0.8 | 0.695 | 0.53 | 0.551 | 0.432 | 0.511 | 0.372 | 0.752 | 0.731 | 0.68 | 0.716 | 0.618
NCI-H1355 | 0.737 | 0.662 | 0.656 | 0.693 | 0.715 | 1.21 | 1.13 | 0.977 | 0.988 | 0.902 | 0.305 | 0.38 | 0.41 | 0.467 | 0.284 | 0.628 | 0.662 | 0.512 | 0.612 | 0.548
NCI-H1437 |  | 1.06 | 0.997 | 0.856 | 0.487 | 0.894 | 0.992 | 0.851 | 0.968 | 1.12 | 0.561 | 0.547 | 0.461 | 0.545 | 0.354 | 0.902 | 0.932 | 0.895 | 0.964 | 0.903
NCI-H1650 | 0.192 | 0.18 | 0.199 | 0.178 | 0.183 | 0.87 | 0.892 | 0.975 | 0.985 | 0.952 | 0.524 | 0.46 | 0.618 | 0.51 | 0.575 | 0.513 | 0.604 | 0.58 | 0.587 | 0.614
